Experimental data taken from US20250214990A1, “DIACYLGLYCEROL KINASE (DGK) ALPHA INHIBITORS AND USES THEREOF” (Insilico Medicine IP Limited, priority 2022, published 2025).

Assays:
[1] = target: T1, DGKA (Homo sapiens, UniProt P23743); experiment: DGKA Inhibition ADP-Glo Assay; assay type: biochemical; settings: 40 μM ATP
T1 construct: purchased SignalChem D21-10BG
Procedure: The DGKA inhibition reactions were performed using ADP-Glo assay. The reactions were carried out in 50 mM HEPES, 100 mM NaCl, 10 mM MgCl2, 1 mM CaCl2, 0.005% TritonX-100 and 1 mM DTT as working solution (pH=7.5). 30 nL DMSO solution of each test compound (Top concentration […] with 10 point, 4-fold dilution series for each compound) were transferred to 384 well plate by Echo and 5 μL DGKA (SignalChem, D21-10BG) enzyme working solution at 2× final reaction concentration was added to each well. After incubated at 25° C. for 15 minutes, 5 μL substrate working solution contain 40 μM ATP (Promega, V915B) and 200 µM DLG (SignalChem, D430-59) were added to initiate reaction. After enzymatic reaction at 25° C. for 60 min, ADP Glo assay reagents (Promega, V9102) were added and luminescence was recorded using an EnVision following the instruction of manual. […] The IC50 value was calculated via a regression analysis of the inhibition rate.

[2] = test system: Human Pan T cells; experiment: IL-2 Release Detection Assay; assay type: cell-based; settings: T-cell; for EC50: IL-2 in supernatant by ELISA, anti-CD3 pre-coated plate, 24 hours; for maximal fold induction: Top activation/DMSO control; for activity at 0.1 µM: curve value at 100 nM/DMSO control*100%, read-out: Activation % at 100 nM
Procedure: Isolate Human Pan T cells from PBMC according to T cell isolation kit (Stemcell, 17951). The suspend T cell in RPMI 1640 medium containing 10% FBS, 1% PS and 55 µM β-Mer at a density of 3*10^6 cells/well/3 ml are seeded into 6 well plate, recovered overnight at 37° C.&[…]. Harvest overnight recovered T cells are suspended in fresh RPMI1640 medium containing 10% FBS, 1% PS and 55 μM f-Mer, seeded 1*10^5/well/200 μl cells into the anti-CD3 pre-coated 96 well plate. Add dilutions of compounds into the cells and incubate at 37° C.&5% CO2 for 24 hours. IL-2 in cell supernatant was detected by ELISA Kit (R&D, DY202). Fit the compound EC50 in non-linear regression equation: Y=Bottom+(Top−Bottom)/(1+10^((Log EC50−X)*HillSlope)), X=compound concentration, Y=Activation %. Top and Bottom: Plateaus in same units as Y. Log EC50: same log units as X. Activation fold: Top activation/DMSO control. Activation % at 100 nM: Activation of non-linear regression equation curve at the concentration of 100 nM/DMSO control*100%.

T1 sequence (P23743 whole entry): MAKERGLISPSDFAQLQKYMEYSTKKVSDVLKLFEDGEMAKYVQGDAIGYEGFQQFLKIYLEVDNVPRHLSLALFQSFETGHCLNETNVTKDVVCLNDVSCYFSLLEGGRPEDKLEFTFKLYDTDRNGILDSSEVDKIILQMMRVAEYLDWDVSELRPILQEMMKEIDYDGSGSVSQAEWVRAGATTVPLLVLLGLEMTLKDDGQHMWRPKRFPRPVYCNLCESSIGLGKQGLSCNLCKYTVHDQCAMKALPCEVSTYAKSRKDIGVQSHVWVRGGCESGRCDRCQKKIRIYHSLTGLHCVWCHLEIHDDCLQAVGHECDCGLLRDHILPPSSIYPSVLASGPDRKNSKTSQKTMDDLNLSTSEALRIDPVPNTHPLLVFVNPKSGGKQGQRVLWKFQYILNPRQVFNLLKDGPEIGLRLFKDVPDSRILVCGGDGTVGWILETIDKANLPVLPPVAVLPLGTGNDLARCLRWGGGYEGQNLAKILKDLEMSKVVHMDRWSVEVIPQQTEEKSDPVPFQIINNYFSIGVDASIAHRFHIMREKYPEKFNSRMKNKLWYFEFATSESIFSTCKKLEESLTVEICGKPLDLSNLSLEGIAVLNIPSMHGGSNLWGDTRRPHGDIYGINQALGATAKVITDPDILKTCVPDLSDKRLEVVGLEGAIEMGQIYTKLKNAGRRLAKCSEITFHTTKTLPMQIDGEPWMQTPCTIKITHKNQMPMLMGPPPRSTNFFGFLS

Row | SMILES | IC50 [1] [nM] | EC50 [2] [nM] | maximal fold induction [2] | activity at 0.1 µM [2] [%]
1 | Cn1c(=O)cc(N2CCOCc3c(C#CC4(C(F)(F)F)CC4)cccc32)c2cc(C#N)ccc21 [Example 4, 1-methyl-2-oxo-4-(6-((1-(trifluoromethyl)cyclopropyl)ethynyl)-2,3-dihydrobenzo[e][1,4]oxazepin-1(5H)-yl)-1,2-dihydroquinoline-6-carbonitrile] | 1 to 10 | 479 | 10 | 313
2 | Cn1c(=O)cc(N2CCOCc3c(C#CC4(C(F)(F)F)CC4)cccc32)c2cc(Cl)ccc21 [Example 3, 6-chloro-1-methyl-4-(6-((1-(trifluoromethyl)cyclopropyl)ethynyl)-2,3-dihydrobenzo[e][1,4]oxazepin-1(5H)-yl)quinolin-2(1H)-one] | 1 to 10 | 422 | 6.3 | 247
3 | Cn1c(=O)c(C#N)c(N2CCOCc3c(C#CC4(C(F)(F)F)CC4)cccc32)c2cc(F)ccc21 [Example 10, 6-fluoro-1-methyl-2-oxo-4-(6-((1-(trifluoromethyl)cyclopropyl)ethynyl)-2,3-dihydrobenzo[e][1,4]oxazepin-1(5H)-yl)-1,2-dihydroquinoline-3-carbonitrile] | 1 to 10 | 2610 | 5.8 | 95.5
4 | Cn1c(=O)nc(N2CCOCc3c(C#CC4(C(F)(F)F)CC4)cccc32)c2nc(Cl)ccc21 [Example 7, 6-chloro-1-methyl-4-(6-((1-(trifluoromethyl)cyclopropyl)ethynyl)-2,3-dihydrobenzol[e][1,4]oxazepin-1(5H)-yl)pyrido[3,2-d]pyrimidin-2(1H)-one] | < 1 | – | – | –
5 | Cn1c(=O)nc(N2CCOCc3ccccc32)c2cc(Cl)c(OCCO)cc21 [Example 36, 6-chloro-4-(2,3-dihydrobenzo[e][1,4]oxazepin-1(5H)-yl)-7-(2-hydroxyethoxy)-1-methylquinazolin-2(1H)-one] | 1 to 10 | – | – | –
6 | Cn1c(=O)cc(N2CCOCc3c(C#CC4(C(F)(F)F)CC4)cccc32)c2nc(Cl)ccc21 [Example 1, 6-chloro-1-methyl-4-(6-((1-(trifluoromethyl)cyclopropyl)ethynyl)-2,3-dihydrobenzo[e][1,4]oxazepin-1(5H)-yl)-1,5-naphthyridin-2(1H)-one] | < 1 | – | – | –
7 | Cn1c(=O)nc(N2CCOCc3c(C#CC4(C(F)(F)F)CC4)cccc32)c2nc(C#N)ccc21 [Example 8] | < 1 | – | – | –
8 | CCc1cccc2c1COCCN2c1nc(=O)n(C)c2cc(OCCO)c(C#N)cc12 [Example 45, 4-(6-ethyl-2,3-dihydrobenzo[e][1,4]oxazepin-1(5H)-yl)-7-(2-hydroxyethoxy)-1-methyl-2-oxo-1,2-dihydroquinazoline-6-carbonitrile] | 1 to 10 | – | – | –
9 | COc1cccc2c1COCCN2c1nc(=O)n(C)c2cc(OCCO)c(Cl)cc12 [Example 42, 6-chloro-7-(2-hydroxyethoxy)-4-(6-methoxy-2,3-dihydrobenzo[e][1,4]oxazepin-1(5H)-yl)-1-methylquinazolin-2(1H)-one] | 1 to 10 | – | – | –

Further lines, with some results ahead:

Row | IC50 [1] [nM] | EC50 [2] [nM] | SMILES | maximal fold induction [2] | activity at 0.1 µM [2] [%]
10 | < 1 | 1000 | COCCOc1cc2c(cc1Cl)c(N1CCOCc3c(C#CC4(C(F)(F)F)CC4)cccc31)nc(=O)n2C [Example 17, 6-chloro-7-(2-methoxyethoxy)-1-methyl-4-(6-((1-(trifluoromethyl)cyclopropyl)ethynyl)-2,3-dihydrobenzo[e][1,4]oxazepin-1(5H)-yl)quinazolin-2(1H)-one] | 10.2 | 202
11 | < 1 | 335 | Cn1c(=O)nc(N2CCOCc3c(C#CC4(C(F)(F)F)CC4)cccc32)c2cc(Cl)c(OC3CCOC3)cc21 (stereo not shown) [Example 11, 6-chloro-1-methyl-7-((tetrahydrofuran-3-yl)oxy)-4-(6-((1-(trifluoromethyl)cyclopropyl)ethynyl)-2,3-dihydrobenzo[e][1,4]oxazepin-1(5H)-yl)quinazolin-2(1H)-one] | 8.6 | 324
12 | < 1 | 243 | Cn1c(=O)nc(N2CCOCc3c(C#CC4(C(F)(F)F)CC4)cccc32)c2cc(Cl)c(OC3CCOCC3)cc21 [Example 25, 6-chloro-1-methyl-7-((tetrahydro-2H-pyran-4-yl)oxy)-4-(6-((1-(trifluoromethyl)cyclopropyl)ethynyl)-2,3-dihydrobenzo[e][1,4]oxazepin-1(5H)-yl)quinazolin-2(1H)-one] | 5.4 | 275
13 | < 1 | 1370 | Cn1c(=O)nc(N2CCOCc3c(C#CC4(C(F)(F)F)CC4)cccc32)c2cc(F)ccc21 [Example 9, 6-fluoro-1-methyl-4-(6-((1-(trifluoromethyl)cyclopropyl)ethynyl)-2,3-dihydrobenzo[e][1,4]oxazepin-1(5H)-yl)quinazolin-2(1H)-one] | 13.2 | 180
14 | 1 to 10 | 62.8 | Cn1c(=O)nc(N2CCOCc3c(C#CC4(C(F)(F)F)CC4)cccc32)c2cc(Cl)c(OCCCN)cc21 [Example 20, 7-(3-aminopropoxy)-6-chloro-1-methyl-4-(6-((1-(trifluoromethyl)cyclopropyl)ethynyl)-2,3-dihydrobenzo[e][1,4]oxazepin-1(5H)-yl)quinazolin-2(1H)-one] | 1.7 | 173
15 | < 1 | 702 | Cn1c(=O)nc(N2CCOCc3c(C#CC4(C(F)(F)F)CC4)cccc32)c2cc(Cl)c(OCCN)cc21 [Example 32, 7-(2-aminoethoxy)-6-chloro-1-methyl-4-(6-((1-(trifluoromethyl)cyclopropyl)ethynyl)-2,3-dihydrobenzo[e][1,4]oxazepin-1(5H)-yl)quinazolin-2(1H)-one] | 33.9 | 540
16 | < 1 | 265 | Cn1c(=O)nc(N2CCOCc3c(C#CC4(C(F)(F)F)CC4)cccc32)c2cc(C#N)c(OCCO)cc21 [Example 14, 7-(2-hydroxyethoxy)-1-methyl-2-oxo-4-(6-((1-(trifluoromethyl)cyclopropyl)ethynyl)-2,3-dihydrobenzo[e][1,4]oxazepin-1(5H)-yl)-1,2-dihydroquinazoline-6-carbonitrile] | 15.3 | 639
17 | 1 to 10 | – | Cn1c(=O)nc(N2CCOCc3c(C#CC4(C(F)(F)F)CC4)cccc32)c2cc(Cl)c(OC3CCNC3)cc21 (stereo not shown) [Example 34, 6-chloro-1-methyl-7-(pyrrolidin-3-yloxy)-4-(6-((1-(trifluoromethyl)cyclopropyl)ethynyl)-2,3-dihydrobenzo[e][1,4]oxazepin-1(5H)-yl)quinazolin-2(1H)-one] | – | –
18 | < 1 | – | Cn1c(=O)nc(N2CCOCc3c(C#CC4(C(F)(F)F)CC4)cccc32)c2cc(C#N)ccc21 [Example 6, 1-methyl-2-oxo-4-(6-((1-(trifluoromethyl)cyclopropyl)ethynyl)-2,3-dihydrobenzo[e][1,4]oxazepin-1(5H)-yl)-1,2-dihydroquinazoline-6-carbonitrile] | – | –
19 | < 1 | – | Cn1c(=O)nc(N2CCOCc3c(C#CC4(C(F)(F)F)CC4)cccc32)c2cc(C#N)c(OCCCO)cc21 [Example 28, 7-(3-hydroxypropoxy)-1-methyl-2-oxo-4-(6-((1-(trifluoromethyl)cyclopropyl)ethynyl)-2,3-dihydrobenzo[e][1,4]oxazepin-1(5H)-yl)-1,2-dihydroquinazoline-6-carbonitrile] | – | –
